From the supplement of paper PMC10307832

Compound: CO[C@H]1C[C@@H]2CC[C@@H](C)[C@@](O)(O2)C(=O)C(=O)N2CCCC[C@H]2C(=O)O[C@H]([C@H](C)C[C@@H]2CC[C@@H](OCCO)[C@H](OC)C2)CC(=O)[C@H](C)/C=C(\C)[C@@H](O)[C@@H](OC)C(=O)[C@H](C)C[C@H](C)/C=C/C=C/C=C/1C [Everolimus] + CC(=O)Nc1cccc(-n2c(=O)n(C3CC3)c(=O)c3c(Nc4ccc(I)cc4F)n(C)c(=O)c(C)c32)c1 [Trametinib] (partner 0.02 µM)
Test: relative viability (nuclei count vs DMSO), 5 days (fraction); higher = more cells survive
Outline: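 Relative viability equals treated-well nuclei counts divided by vehicle-well nuclei counts. Counts came from 4× images of lung cancer cell lines grown in 1536-well plates for 5 days after pin-tool dosing on the day after seeding. Dosing used one drug alone or a fixed anchor-drug dose plus five library-drug doses (not always all listed) in √10 steps, and values are medians of duplicate plates.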

| Cell Line | relative viability (first compound 0.01 µM) | relative viability (first compound 0.03162 µM) | relative viability (first compound 0.1 µM) | relative viability (first compound 0.3162 µM) | relative viability (first compound 1 µM) |
| --- | --- | --- | --- | --- | --- |
| 201T | 0.658 | 0.632 | 0.586 | 0.595 | 0.57 |
| A-427 | 0.472 | 0.482 | 0.472 | 0.556 | 0.574 |
| BEN | 0.494 | 0.447 | 0.467 | 0.484 | 0.46 |
| CAL-12T | 0.193 | 0.187 | 0.172 | 0.191 | 0.191 |
| COR-L23 | 0.37 | 0.337 | 0.316 | 0.375 | 0.294 |
| COR-L 105 | 0.424 | 0.389 | 0.378 | 0.455 | 0.424 |
| ChaGo-K-1 | 0.647 | 0.795 | 0.729 | 0.751 | 0.796 |
| EKVX | – | 0.294 | 0.257 | 0.268 | 0.382 |
| EMC-BAC-2 | 0.502 | 0.605 | 0.536 | – | 0.503 |
| EPLC-272H | 0.199 | 0.227 | 0.179 | 0.205 | 0.204 |
| H3255 | 0.414 | 0.391 | 0.351 | 0.433 | 0.403 |
| HARA | 0.425 | 0.394 | 0.346 | 0.559 | 0.339 |
| HCC-15 | 0.35 | 0.344 | 0.334 | 0.282 | 0.32 |
| HCC-44 | 1.13 | 1.08 | 0.982 | 1.04 | 0.901 |
| HCC-78 | 0.637 | 0.56 | 0.493 | 0.529 | 0.47 |
| HCC-366 | 0.258 | 0.245 | 0.257 | 0.227 | 0.225 |
| HCC-827 | 0.494 | 0.314 | 0.311 | 0.31 | 0.295 |
| HOP-62 | 0.263 | 0.211 | 0.248 | 0.2 | 0.195 |
| LC-2-ad | 0.961 | 0.957 | 0.948 | 0.964 | 0.891 |
| LCLC-97TM1 | 0.153 | 0.164 | 0.126 | 0.155 | 0.147 |
| LCLC-103H | 0.605 | 0.659 | 0.661 | 0.601 | 0.591 |
| LK-2 | 0.688 | 0.468 | 0.425 | 0.421 | 0.438 |
| LOU-NH91 | 0.626 | 0.695 | 0.667 | 0.612 | 0.623 |
| LU99A | 0.35 | 0.268 | 0.298 | 0.314 | 0.354 |

| Cell Line | relative viability (first compound 0.01 µM) | relative viability (first compound 0.03162 µM) | relative viability (first compound 0.1 µM) | relative viability (first compound 0.3162 µM) | relative viability (first compound 1 µM) |
| --- | --- | --- | --- | --- | --- |
| LXF-289 | 0.625 | 0.537 | 0.574 | 0.508 | 0.528 |
| NCI-H23 | 0.248 | 0.204 | 0.218 | 0.252 | 0.216 |
| NCI-H322M | 0.474 | 0.504 | 0.495 | 0.463 | 0.484 |
| NCI-H358 | 0.105 | 0.102 | 0.114 | 0.129 | 0.109 |
| NCI-H441 | 0.373 | 0.306 | 0.327 | 0.357 | 0.29 |
| NCI-H460 | 0.082 | 0.101 | 0.114 | 0.0573 | 0.124 |
| NCI-H520 | 0.292 | 0.286 | 0.245 | 0.249 | 0.256 |
| NCI-H522 | 0.634 | 0.55 | 0.527 | 0.456 | 0.635 |
| NCI-H596 | 0.613 | 0.507 | 0.497 | 0.525 | 0.575 |
| NCI-H647 | 0.258 | 0.318 | 0.288 | 0.252 | 0.293 |
| NCI-H650 | 1 | 0.687 | 0.664 | 0.593 | 0.497 |
| NCI-H661 | 0.407 | 0.376 | 0.343 | 0.409 | 0.318 |
| NCI-H727 | 0.433 | 0.385 | 0.337 | 0.363 | 0.342 |
| NCI-H838 | 0.288 | 0.267 | 0.278 | 0.263 | 0.28 |
| NCI-H1355 | 0.244 | 0.24 | 0.215 | 0.263 | 0.244 |
| NCI-H1395 | 0.724 | 0.641 | 0.657 | 0.694 | 0.652 |
| NCI-H1437 | 0.383 | 0.348 | 0.374 | 0.313 | 0.249 |
| NCI-H1648 | 0.388 | 0.435 | 0.395 | 0.307 | 0.325 |
| NCI-H1650 | 0.48 | 0.489 | 0.437 | 0.481 | 0.58 |
| NCI-H1651 | 0.774 | 0.657 | 0.605 | 0.592 | 0.538 |
| NCI-H1666 | 0.832 | 0.911 | 0.867 | 0.851 | 0.705 |
| NCI-H1734 | 0.502 | 0.473 | 0.404 | 0.453 | 0.46 |
| NCI-H1755 | 0.666 | 0.579 | 0.553 | 0.545 | 0.453 |
| NCI-H1792 | 0.196 | 0.251 | 0.215 | 0.164 | 0.16 |

| Cell Line | relative viability (first compound 0.01 µM) | relative viability (first compound 0.03162 µM) | relative viability (first compound 0.1 µM) | relative viability (first compound 0.3162 µM) | relative viability (first compound 1 µM) |
| --- | --- | --- | --- | --- | --- |
| NCI-H1793 | 0.315 | 0.247 | 0.247 | 0.312 | 0.228 |
| NCI-H1915 | 0.233 | 0.197 | 0.204 | 0.228 | 0.191 |
| NCI-H1944 | 0.311 | 0.303 | 0.341 | 0.312 | 0.298 |
| NCI-H1975 | 0.389 | 0.373 | 0.287 | 0.276 | 0.226 |
| NCI-H1993 | 0.423 | 0.469 | 0.486 | 0.464 | 0.536 |
| NCI-H2009 | 0.132 | 0.121 | 0.14 | 0.138 | 0.158 |
| NCI-H2023 | 0.259 | 0.216 | 0.247 | 0.187 | 0.225 |
| NCI-H2085 | 0.313 | 0.329 | 0.299 | 0.264 | 0.297 |
| NCI-H2087 | 0.158 | 0.137 | 0.185 | 0.161 | 0.143 |
| NCI-H2126 | 0.39 | 0.362 | 0.371 | 0.343 | 0.383 |
| NCI-H2170 | 0.316 | 0.248 | 0.266 | 0.252 | 0.279 |
| NCI-H2228 | 0.33 | 0.237 | 0.256 | 0.251 | 0.265 |
| NCI-H2342 | 0.649 | 0.54 | 0.482 | 0.468 | 0.583 |
| NCI-H2347 | 0.266 | 0.337 | 0.244 | 0.261 | 0.286 |
| NCI-H2405 | 0.419 | 0.362 | 0.385 | 0.426 | 0.431 |
| NCI-H3122 | 0.167 | 0.147 | 0.172 | 0.141 | 0.11 |
| PC-3 [JPC-3] | 0.601 | 0.582 | 0.531 | – | 0.681 |
| PC-14 | 0.297 | 0.444 | 0.23 | 0.36 | 0.276 |
| RERF-LC-KJ | 0.654 | 0.613 | 0.495 | 0.494 | 0.524 |
| SK-LU-1 | 0.39 | 0.355 | 0.298 | 0.345 | 0.317 |
| SK-MES-1 | 0.38 | 0.412 | 0.372 | 0.397 | 0.277 |
| SW 900 | 0.604 | 0.733 | 0.536 | 0.717 | 0.432 |
| SW 1573 | 0.3 | 0.311 | 0.291 | 0.303 | 0.281 |
| UMC-11 | 0.267 | 0.299 | 0.252 | 0.348 | 0.295 |
